# Reference: patent US20160340674A1, “Compositions and Methods to Inhibit EZH2 for the Treatment of Cardiovascular Diseases” (UNIVERSITY OF ROCHESTER, priority 2014, published 2016)
# System: human umbilical vein endothelial cells (HUVECs)
# Assay: KLF2 and eNOS gene expression in endothelial cells treated with GSK126 (RT-PCR and q-PCR)
# Assay type: cell-based
# From the text: Experiments were designed to determine the effects of the EZH2 inhibitor GSK126 on expression of genes KLF2 and eNOS in endothelial cells. Histone methylation is an important epigenetic modification. Histone 3 lysine 27 (H3K27) is correlated with transcriptional repression. EZH2, a histone methytransferase, is critical for the epigenetic maintenance of the H3K27me3 repressive chromatin mark. To determine whether the alternation of histone methylation affects gene expression in endothelial cells, experiments were designed to assess the effects of an EZH2 inhibitor GSK126. […]
# [1] = 0.02 μM GSK126 for different times, RT-PCR and q-PCR (FIG. 1)
smiles,measurement,setting,value
"CC[C@H](C)n1cc(C)c2c(C(=O)NCc3c(C)cc(C)[nH]c3=O)cc(-c3ccc(N4CCNCC4)nc3)cc21 [GSK126, (S)-1-(sec-butyl)-N-((4,6-dimethyl-2-oxo-1,2-dihydropyridin-3-yl)methyl)-3-methyl-6-(6-(piperazin-1-yl)pyridin-3-yl)-1H-indole-4-carboxamide]",level of KLF2 mRNA,[1],increased
same,level of eNOS mRNA,[1],increased
same,KLF2 expression,24 hours at different concentrations (FIG. 2A),dose-dependently increased
same,eNOS expression,24 hours at different concentrations (FIG. 2B),dose-dependently increased
